Data reported in US20260297070A1, “CYCLIC [COMPOUND LEFT OUT] WRN INHIBITORS” (Nimbus Wadjet, Inc., priority 2023, published 2026).

biological target: T1, human Werner helicase (WRN-BV08, Uniprot Q14191, amino acids 517-1235 with L1074F point mutation) (Homo sapiens, UniProt Q14191, L1074F); assay: WRN (BV08) ADP-Glo Assay; type: biochemical; settings: 0.15 nM WRN, 5 μM ATP, 0.1 nM DNA duplex, 15 min preincubation, 60 min at 25° C., pH 7.5, 1% DMSO; read-out: ADP-Glo_hWRN_IC50
T1 construct: Uniprot Q14191, amino acids 517-1235 with L1074F point mutation; TEV-cleavable 8×His (C, cleaved yes); made in house; host or cells: Sf9 insect cells (baculovirus)
Method in brief: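 Untagged WRN (Sf9-expressed, TEV-cleaved) at 0.15 nM was preincubated 15 min at 25 °C with compound, then reacted 60 min at 25 °C with 5 μM ATP and 0.1 nM DNA duplex in Bicine pH 7.5, 1 mM MgCl2. ADP-Glo luminescence gave % inhibition; IC50 by four-parameter fit.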

T1 sequence (Q14191 with tags, fused parts or gaps L1074F limits assumed): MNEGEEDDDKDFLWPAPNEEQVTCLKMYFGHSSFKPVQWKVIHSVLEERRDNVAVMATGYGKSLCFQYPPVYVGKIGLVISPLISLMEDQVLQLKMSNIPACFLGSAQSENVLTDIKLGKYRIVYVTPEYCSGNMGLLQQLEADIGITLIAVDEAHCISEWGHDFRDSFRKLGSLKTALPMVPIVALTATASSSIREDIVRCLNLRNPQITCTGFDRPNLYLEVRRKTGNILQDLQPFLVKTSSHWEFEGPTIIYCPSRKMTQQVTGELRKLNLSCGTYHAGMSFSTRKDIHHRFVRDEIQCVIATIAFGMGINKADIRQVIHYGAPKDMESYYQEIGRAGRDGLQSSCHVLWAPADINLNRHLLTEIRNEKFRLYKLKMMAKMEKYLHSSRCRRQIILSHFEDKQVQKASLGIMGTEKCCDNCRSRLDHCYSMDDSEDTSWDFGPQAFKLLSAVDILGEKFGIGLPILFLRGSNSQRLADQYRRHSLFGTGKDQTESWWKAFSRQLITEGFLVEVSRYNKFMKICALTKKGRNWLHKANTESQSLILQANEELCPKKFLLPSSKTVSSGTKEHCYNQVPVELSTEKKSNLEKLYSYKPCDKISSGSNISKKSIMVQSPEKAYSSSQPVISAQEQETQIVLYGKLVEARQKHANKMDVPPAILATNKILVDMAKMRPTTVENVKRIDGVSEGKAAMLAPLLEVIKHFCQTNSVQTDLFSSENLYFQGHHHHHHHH

SMILES | IC50 [µM]
O=C(Cn1cc(-c2ccc(F)c(F)c2)cn1)N(Cc1nc([C@H]2C[C@H]2F)cs1)C1C=CS(=O)(=O)C1 (stereo partly drawn) [I-724, 2-[4-(3,4-difluorophenyl)-1H-pyrazol-1-yl]-N-(1,1-dioxo-2,3-dihydro-1lambda6-thiophen-3-yl)-N-({4-[(1R,2R)-2-fluorocyclopropyl]-1,3-thiazol-2-yl}methyl)acetamide] | < 0.5
COc1ccc(-c2ccc(CC(=O)N(Cc3ccncc3)C3C=CS(=O)(=O)C3)cc2)cc1 (centres unmarked) [I-555, N-(1,1-dioxo-2,3-dihydro-1lambda6-thiophen-3-yl)-2-{4′-methoxy-[1,1′-biphenyl]-4-yl}-N-[(pyridin-4-yl)methyl]acetamide] | > 50
CN(C)c1cc(CN(C(=O)Cc2ccc(S(F)(F)(F)(F)F)cc2)C2C=CS(=O)(=O)C2)ccn1 (centres unmarked) [I-89, N-{[2-(dimethylamino)pyridin-4-yl]methyl}-N-(1,1-dioxo-2,3-dihydro-1lambda6-thiophen-3-yl)-2-[4-(pentafluoro-lambda6-sulfanyl)phenyl]acetamide] | 0.5 to 5
O=C(Cc1ccc(OCc2ccccc2)cc1)N(Cc1ccncc1)C1C=CS(=O)(=O)C1 (centres unmarked) [I-501, 2-[4-(benzyloxy)phenyl]-N-(1,1-dioxo-2,3-dihydro-1lambda6-thiophen-3-yl)-N-[(pyridin-4-yl)methyl]acetamide] | > 50
CS(=O)(=O)Nc1cccc(CN(C(=O)Cc2ccc(-n3cccc3)cc2)C2C=CS(=O)(=O)C2)c1 (centres unmarked) [I-344, N-(1,1-dioxo-2,3-dihydro-1lambda6-thiophen-3-yl)-N-[(3-methanesulfonamidophenyl)methyl]-2-[4-(1H-pyrrol-1-yl)phenyl]acetamide] | 10 to 50
O=C(Cc1ccc(N2CCC2)cc1)N(Cc1ccncc1)C1C=CS(=O)(=O)C1 (centres unmarked) [I-461, 2-[4-(azetidin-1-yl)phenyl]-N-(1,1-dioxo-2,3-dihydro-1lambda6-thiophen-3-yl)-N-[(pyridin-4-yl)methyl]acetamide] | > 50
C#CCCCC(=O)N1CCN(c2ccc(CN(C(=O)Cc3ccc(-n4cccc4)cc3)C3C=CS(=O)(=O)C3)cc2)CC1 (centres unmarked) [I-238, N-(1,1-dioxo-2,3-dihydro-1lambda6-thiophen-3-yl)-N-({4-[4-(hex-5-ynoyl)piperazin-1-yl]phenyl}methyl)-2-[4-(1H-pyrrol-1-yl)phenyl]acetamide] | 0.5 to 5
Cc1csc(CN(C(=O)Cc2ccc(-n3cccc3)cc2)C2C=CS(=O)(=O)C2)n1 (centres unmarked) [I-189, N-(1,1-dioxo-2,3-dihydro-1lambda6-thiophen-3-yl)-N-[(4-methyl-1,3-thiazol-2-yl)methyl]-2-[4-(1H-pyrrol-1-yl)phenyl]acetamide] | 0.5 to 5
O=C([C@H]1CC[C@@H](C(F)(F)F)O1)N(Cc1ccncc1)C1C=CS(=O)(=O)C1 (mixture of isomers) [I-714, rac-(2R,5S)-N-(1,1-dioxo-2,3-dihydro-1lambda6-thiophen-3-yl)-N-[(pyridin-4-yl)methyl]-5-(trifluoromethyl)oxolane-2-carboxamide] | > 50
O=C(CCc1nc2cc(Cl)ccc2s1)N(Cc1ccncc1)C1C=CS(=O)(=O)C1 (centres unmarked) [I-391, 3-(5-chloro-1,3-benzothiazol-2-yl)-N-(1,1-dioxo-2,3-dihydro-1lambda6-thiophen-3-yl)-N-[(pyridin-4-yl)methyl]propanamide] | > 50
COc1cc(CC(=O)N(Cc2ccncc2)C2C=CS(=O)(=O)C2)cc(OC)c1Br (centres unmarked) [I-631, 2-(4-bromo-3,5-dimethoxyphenyl)-N-(1,1-dioxo-2,3-dihydro-1lambda6-thiophen-3-yl)-N-[(pyridin-4-yl)methyl]acetamide] | > 50
O=C(c1c[nH]c2cc(-c3ccc(F)cc3)ccc12)N(Cc1ccncc1)C1C=CS(=O)(=O)C1 (centres unmarked) [I-423, N-(1,1-dioxo-2,3-dihydro-1lambda6-thiophen-3-yl)-6-(4-fluorophenyl)-N-[(pyridin-4-yl)methyl]-1H-indole-3-carboxamide] | > 50
O=C(Cc1ccc(-n2cccc2)cc1)N(CC12CC(C1)C2)C1C=CS(=O)(=O)C1 (centres unmarked) [I-540, N-({bicyclo[1.1.1]pentan-1-yl}methyl)-N-(1,1-dioxo-2,3-dihydro-1lambda6-thiophen-3-yl)-2-[4-(1H-pyrrol-1-yl)phenyl]acetamide] | > 50

Results, then the compound that gave them:

IC50 [µM] | SMILES
0.5 to 5 | C#CCCCC(=O)N1CCN(C(=O)c2ccc(CN(C(=O)Cc3ccc(-n4cccc4C)cc3F)C3C=CS(=O)(=O)C3)cc2)CC1 (centres unmarked) [I-182, N-(1,1-dioxo-2,3-dihydro-1lambda6-thiophen-3-yl)-2-[2-fluoro-4-(2-methyl-1H-pyrrol-1-yl)phenyl]-N-({4-[4-(hex-5-ynoyl)piperazine-1-carbonyl]phenyl}methyl)acetamide]
10 to 50 | CN(C)C(=O)C(C(=O)N(Cc1ccnc(C(C)(C)O)c1)C1C=CS(=O)(=O)C1)c1ccc(-c2ccc(F)cc2)cc1 (single isomer, unassigned) [I-309, (2R**)-N-[(3R*)-1,1-dioxo-2,3-dihydro-1lambda6-thiophen-3-yl]-2-{4′-fluoro-[1,1′-biphenyl]-4-yl}-N-{[2-(2-hydroxypropan-2-yl)pyridin-4-yl]methyl}-N′,N′-dimethylpropanediamide]
< 0.5 | CC(C)(O)c1cc(CN(C(=O)Cn2ncc(-c3cc(F)c(F)c(F)c3)c2Cl)C2C=CS(=O)(=O)C2)ccn1 (single isomer, unassigned) [I-773]
< 0.5 | Cc1nc(CN(C(=O)Cc2ccc(S(F)(F)(F)(F)F)cc2)C2C=CS(=O)(=O)C2)sc1C (centres unmarked) [I-612, N-[(4,5-dimethyl-1,3-thiazol-2-yl)methyl]-N-(1,1-dioxo-2,3-dihydro-1lambda6-thiophen-3-yl)-2-[4-(pentafluoro-lambda6-sulfanyl)phenyl]acetamide]
< 0.5 | COc1cc(CN(C(=O)Cn2ncc(-c3ccc(F)c(F)c3)c2C)[C@@H]2C=CS(=O)(=O)C2)ccn1 [I-739, 2-[4-(3,4-difluorophenyl)-5-methyl-1H-pyrazol-1-yl]-N-[(3R)-1,1-dioxo-2,3-dihydro-1lambda6-thiophen-3-yl]-N-[(2-methoxypyridin-4-yl)methyl]acetamide]
0.5 to 5 | CC(C)(O)c1cc(CN(C(=O)Cc2ccc(C(F)(F)F)cc2F)C2C=CS(=O)(=O)C2)ccn1 (centres unmarked) [I-128, N-(1,1-dioxo-2,3-dihydro-1lambda6-thiophen-3-yl)-2-[2-fluoro-4-(trifluoromethyl)phenyl]-N-{[2-(2-hydroxypropan-2-yl)pyridin-4-yl]methyl}acetamide]
10 to 50 | O=C(Cn1cnc(-c2ccccc2)cc1=O)N(Cc1ccncc1)C1C=CS(=O)(=O)C1 (centres unmarked) [I-325, N-(1,1-dioxo-2,3-dihydro-1lambda6-thiophen-3-yl)-2-(6-oxo-4-phenyl-1,6-dihydropyrimidin-1-yl)-N-[(pyridin-4-yl)methyl]acetamide]
> 50 | N#CCCN(C(=O)Cc1ccc(-c2ccc(F)cc2)cc1)C1C=CS(=O)(=O)C1 (centres unmarked) [I-386, N-(2-cyanoethyl)-N-(1,1-dioxo-2,3-dihydro-1lambda6-thiophen-3-yl)-2-{4′-fluoro-[1,1′-biphenyl]-4-yl}acetamide]
> 50 | Cc1cnn(CC(=O)N(Cc2ccncc2)C2C=CS(=O)(=O)C2)c1 (centres unmarked) [I-436, N-(1,1-dioxo-2,3-dihydro-1lambda6-thiophen-3-yl)-2-(4-methyl-1H-pyrazol-1-yl)-N-[(pyridin-4-yl)methyl]acetamide]

same assay, conditions: ADP-Glo_hWRN_IC50, 0.15 nM WRN, 5 μM ATP, 0.1 nM DNA duplex, 15 min preincubation, 60 min at 25° C., pH 7.5, 1% DMSO

IC50 [µM] | SMILES
> 50 | O=C(CN1CC=C(c2ccccc2)CC1)N(c1ccccc1)C1C=CS(=O)(=O)C1 (centres unmarked) [I-430, N-(1,1-dioxo-2,3-dihydro-1lambda6-thiophen-3-yl)-N-phenyl-2-(4-phenyl-1,2,3,6-tetrahydropyridin-1-yl)acetamide]
